US20240208969A1, “SUBSTITUTED FUSED BICYCLIC COMPOUNDS AS PARP INHIBITORS AND THE USE THEREOF” (IMPACT THERAPEUTICS (SHANGHAI), INC., priority 2021, published 2024)

What was measured:
PARP1 = PARP1 (Homo sapiens, UniProt P09874); assay: PARP1 chemiluminescent assay; type: biochemical; conditions: recombinant PARP1 enzyme activity, chemiluminescence
Procedure: (§1) Mix the solution of recombinant poly ADP ribotransferase 1 and 2 (PARP1 and PARP2) (40 ng enzyme/well) and the compounds to be tested, respectively. And then added to a 96-well plate coated with […] mixture, incubated at room temperature for 1 h. Then add 50 μL 0.3 ng/mL Streptavidin-HRP to each well. The plates were incubated for 30 minutes at room temperature. Finally, the plates were treated with streptavidin-HRP followed by addition of the ELISA ECL substrate to produce chemiluminescence that can then be measured using a chemiluminescence reader. The inhibition rate of the compound to PARP1/2 enzyme activity was calculated according to the following formula. [formula] IC50 value is obtained by fitting the s-shaped dose response curve equation by using XL Fit software. The curve equation is Y=100/(1+10^(log C−log IC50)), C is the compound concentration. Table 1 summarizes the inhibitory effects of compounds on PARP1 and PARP2 enzyme activity (IC50), wherein +++++ indicates IC50≤1 nM; ++++ indicates 1<IC50≤10 nM; +++ indicates 10 nM<IC50≤100 nM: ++ indicates 100 nM<IC50≤1 μM; + indicates IC50>1 μM.

PARP2 = PARP2 (Homo sapiens, UniProt Q9UGN5); assay: PARP2 chemiluminescent assay; type: biochemical; conditions: recombinant PARP2 enzyme activity, chemiluminescence
Procedure: as §1

MDA-MB-436 cells = assay: Inhibition of proliferation of human breast cancer MDA-MB-436 cell line (CCK-8, 7 days); type: cell-based; conditions: Homo sapiens, 168 h, proliferation of MDA-MB-436, 7 days
Procedure: The cells were cultured in complete medium (DMEM medium +10% FBS+Insulin+glutathione). When the confluence reached about 80%, cells were digested and gently dispensed from the bottom of the dish with a 1 mL pipette. Cell suspension was collected and centrifuged at 500 rpm for 3 min. The supernatant was discarded, and the cell pellet were re-suspended in complete medium. The cells were seeded into a culture dish at an appropriate proportion, and then cultured in a 5% CO2 incubator at 37° C. The assay was carried out when the cells were in optimum condition and the confluence was reached 80%. Cells were harvested in the logarithmic growth phase by using 1 mL pipette gently and then centrifugated at 500 rpm for 3 min. The cells were resuspended by using refresh medium after removing the supernatant and then the cells were counted. The cells were seeded at 3000/well in a 96 well plate and incubated at 37° C. 5% CO2 incubator overnight. In the second day, cells were treated with compound at 8 serially diluted dose with 1000×final concentration in 100% DMSO. The compound was prepared as below: 1000×dilution tested compound solution to 40×test compound solution by adding 5μL, 1000×compound solution to 120 μL Medium (25-fold dilution). The solution was mixed by oscillation. DMSO was used as the control.
The medium was removed from the wells in the plate after the plate was taken out from incubator. Then, fresh medium of 195 μL/per well was added to the 96 well plate. 5μL/per well of 40×test compound solution was added into the 96 well plate. Finally, the plate was incubated for 7 days in a 37° C. 5% CO2 incubator. The medium containing compound was changed once on the fourth day. After 7 days, 20 μL of CCK-8 was added to each well and shake gently, then was cultured for 4 hours. The plate was shaken for 5 min after incubation, the absorbance values of 450 nm. and 650nm wavelengths were recorded respectively (OD=absorbance value of 450 nm−absorbance value of 650 nm) by using the multifunction readout instrument.
Data were analyzed by software GraphPad Prism 6.0. The inhibitory activity of compounds on cell proliferation was plotted using cell survival rate against the compound concentration as coordinates. Cell survival rate %=(ODcompound−ODbackground)/(ODDMSO−ODbackground)×100. The IC50 value was fitted by the s-shaped dose response curve equation: Y=100/(1+10^(log C−log IC50)), and C was the compound concentration.
Table 2 summarizes the inhibitory effect data (IC50) of the compounds on the proliferation of human breast cancer cells MDA-MB-436, wherein ++++ indicates 1<IC50≤10 nM; +++ indicates 10 nM<IC50≤100 nM; ++ indicates 100 nM<IC50≤1 μM; + indicates IC50>1 μM.

Chain of PARP2 (Q9UGN5 whole entry, species assumed): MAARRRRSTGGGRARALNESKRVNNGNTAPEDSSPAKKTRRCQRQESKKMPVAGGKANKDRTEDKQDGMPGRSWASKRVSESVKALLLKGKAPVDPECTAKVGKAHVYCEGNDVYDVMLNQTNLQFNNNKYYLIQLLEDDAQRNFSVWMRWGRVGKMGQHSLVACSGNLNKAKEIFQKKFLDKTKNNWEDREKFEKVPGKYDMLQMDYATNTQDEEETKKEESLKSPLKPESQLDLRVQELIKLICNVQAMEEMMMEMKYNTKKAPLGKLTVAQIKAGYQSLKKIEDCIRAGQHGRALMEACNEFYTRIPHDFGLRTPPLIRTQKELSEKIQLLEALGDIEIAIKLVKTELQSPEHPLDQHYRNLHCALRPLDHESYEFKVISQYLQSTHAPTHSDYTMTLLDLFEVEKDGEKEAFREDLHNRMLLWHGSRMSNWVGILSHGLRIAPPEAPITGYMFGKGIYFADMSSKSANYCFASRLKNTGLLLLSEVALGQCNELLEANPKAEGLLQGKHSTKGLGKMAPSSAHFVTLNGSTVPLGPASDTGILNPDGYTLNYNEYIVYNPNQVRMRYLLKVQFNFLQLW
Chain of PARP1 (P09874 whole entry): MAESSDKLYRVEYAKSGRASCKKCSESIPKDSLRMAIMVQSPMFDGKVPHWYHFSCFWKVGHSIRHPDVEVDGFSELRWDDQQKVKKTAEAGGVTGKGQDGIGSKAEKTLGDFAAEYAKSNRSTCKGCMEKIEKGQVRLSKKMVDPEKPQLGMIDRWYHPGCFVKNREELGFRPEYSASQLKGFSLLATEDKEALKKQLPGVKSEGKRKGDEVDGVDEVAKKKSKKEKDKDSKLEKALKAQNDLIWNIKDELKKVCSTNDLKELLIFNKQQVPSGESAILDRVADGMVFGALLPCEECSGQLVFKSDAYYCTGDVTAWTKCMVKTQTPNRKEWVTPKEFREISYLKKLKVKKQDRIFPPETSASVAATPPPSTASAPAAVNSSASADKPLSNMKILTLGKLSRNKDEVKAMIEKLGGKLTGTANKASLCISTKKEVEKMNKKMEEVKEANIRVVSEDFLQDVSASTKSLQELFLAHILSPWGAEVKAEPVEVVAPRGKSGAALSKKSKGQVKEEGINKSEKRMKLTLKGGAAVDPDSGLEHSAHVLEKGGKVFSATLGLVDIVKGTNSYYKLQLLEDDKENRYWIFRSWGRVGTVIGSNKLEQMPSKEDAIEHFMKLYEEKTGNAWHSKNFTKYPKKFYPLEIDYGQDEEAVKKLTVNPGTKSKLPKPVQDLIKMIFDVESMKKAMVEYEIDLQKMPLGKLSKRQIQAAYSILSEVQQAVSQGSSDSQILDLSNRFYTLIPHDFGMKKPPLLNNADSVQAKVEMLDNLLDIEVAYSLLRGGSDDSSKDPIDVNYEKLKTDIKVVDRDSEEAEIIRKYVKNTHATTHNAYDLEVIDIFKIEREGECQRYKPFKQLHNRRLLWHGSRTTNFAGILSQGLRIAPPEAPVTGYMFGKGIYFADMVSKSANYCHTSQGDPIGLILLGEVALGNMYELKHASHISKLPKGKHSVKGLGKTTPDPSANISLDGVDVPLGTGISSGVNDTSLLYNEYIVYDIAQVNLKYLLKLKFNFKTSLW

IC50 (PARP1) [nM] | IC50 (PARP2) [nM] | IC50 (MDA-MB-436 cells) [nM] | SMILES
1 to 10 | 100 to 1000 | 10 to 100 | CCn1c(=O)[nH]c2cc(CN3CCN(c4ccc(C(=O)NC)nc4F)CC3)c(F)cc2c1=O [Example 14, 5-(4-((3-ethyl-6-fluoro-2,4-dioxo-1,2,3,4-tetrahydroquinazolin-7-yl)methyl)piperazin-1-yl)-6-fluoro-N-methylpicolinamide]
1 to 10 | – | 10 to 100 | CCNC(=O)c1ccc(N2CCN(Cc3cc(F)c4c(c3)NC(=O)N(CC)C4)CC2)c(Cl)n1 [Example 122, 6-chloro-N-ethyl-5-(4-((3-ethyl-5-fluoro-2-oxo-1,2,3,4-tetrahydroquinazolin-7-yl)methyl)piperazin-1-yl)picolinamide]
1 to 10 | > 1000 | 1 to 10 | CCNC(=O)c1ccc(N2CCN(Cc3ccc4c(c3)NC(=O)N(CC)C4)CC2)c(C)n1 [Example 117, 5-(4-((3-ethyl-2-oxo-1,2,3,4-tetrahydroquinazolin-7-yl)methyl)piperazin-1-yl)-6-methyl-N-ethylpicolinamide]
1 to 10 | > 1000 | 10 to 100 | CCNC(=O)c1ccc(N2CCN(Cc3ccc4c(=O)n(CC)c(=O)[nH]c4c3)CC2)c(C)n1 [Example 84, N-ethyl-5-(4-((3-ethyl-2,4-dioxo-1,2,3,4-tetrahydroquinazolin-7-yl)methyl)piperazin-1-yl)-6-methylpicolinamide]
10 to 100 | > 1000 | 100 to 1000 | CCn1c(=O)[nH]c2cc(CN3CCN(c4ccc(C(=O)NC)nc4C)CC3)c(F)cc2c1=O [Example 67, 5-(4-((3-ethyl-6-fluoro-2,4-dioxo-1,2,3,4-tetrahydroquinazolin-7-yl)methyl)piperazin-1-yl)-N,6-dimethylpicolinamide]
1 to 10 | > 1000 | 1 to 10 | CCN1Cc2c(F)cc(CN3CCN(c4ccc(C(=O)NC)nc4C)CC3)cc2NC1=O [Example 119, 5-(4-((3-ethyl-5-fluoro-2-oxo-1,2,3,4-tetrahydroquinazolin-7-yl)methyl)piperazin-1-yl)-N,6-dimethylpicolinamide]
1 to 10 | > 1000 | 10 to 100 | CCn1c(=O)[nH]c2cc(CN3CCN(c4ccc(C(=O)NC5CC5)nc4C)CC3)ccc2c1=O [Example 78, N-cyclopropyl-5-(4-((3-ethyl-2,4-dioxo-1,2,3,4-tetrahydroquinazolin-7-yl)methyl)piperazin-1-yl)-6-methylpicolinamide]
1 to 10 | > 1000 | 1 to 10 | CCNC(=O)c1ccc(N2CCN(Cc3cc(F)c4c(=O)n(CC)c(=O)[nH]c4c3)CC2)c(Cl)n1 [Example 104, 6-chloro-N-ethyl-5-(4-((3-ethyl-5-fluoro-2,4-dioxo-1,2,3,4-tetrahydroquinazolin-7-yl)methyl)piperazin-1-yl)picolinamide]
1 to 10 | > 1000 | 1 to 10 | CCn1c(=O)[nH]c2cc(CN3CCN(c4ccc(C(=O)NC)nc4C)CC3)ccc2c1=O [Example 22, 5-(4-((3-ethyl-2,4-dioxo-1,2,3,4-tetrahydroquinazolin-7-yl)methyl)piperazin-1-yl)-N,6-dimethylpicolinamide]
1 to 10 | > 1000 | 10 to 100 | CCN1Cc2ccc(CN3CCN(c4ccc(C(=O)NC)nc4F)CC3)cc2NC1=O [Example 114, 5-(4-((3-ethyl-2-oxo-1,2,3,4-tetrahydroquinazolin-7-yl)methyl)piperazin-1-yl)-6-fluoro-N-methylpicolinamide]
1 to 10 | 100 to 1000 | 1 to 10 | CCn1c(=O)[nH]c2cc(CN3CCN(c4ccc(C(=O)NC)nc4F)CC3)ccc2c1=O [Example 13, 5-(4-((3-ethyl-2,4-dioxo-1,2,3,4-tetrahydroquinazolin-7-yl)methyl)piperazin-1-yl)-6-fluoro-N-methylpicolinamide]
1 to 10 | 100 to 1000 | 1 to 10 | CCn1c(=O)[nH]c2cc(CN3CCN(c4ccc(C(=O)NC)nc4Cl)CC3)cc(Cl)c2c1=O [Example 63, 6-chloro-5-(4-((5-chloro-3-ethyl-2,4-dioxo-1,2,3,4-tetrahydroquinazolin-7-yl)methyl)piperazin-1-yl)-N-methylpicolinamide]
– | – | 10 to 100 | CNC(=O)c1ccc(N2CCN(Cc3ccc4c(=O)n(C)c(=O)[nH]c4c3)CC2)c(C)n1 [Example 99, N,6-dimethyl-5-(4-((3-methyl-2,4-dioxo-1,2,3,4-tetrahydroquinazolin-7-yl)methyl)piperazin-1-yl)picolinamide]

The next lines start with the compound.

SMILES | IC50 (PARP1) [nM] | IC50 (PARP2) [nM] | IC50 (MDA-MB-436 cells) [nM]
CCn1c(=O)[nH]c2cc(CN3CCN(c4ccc(C(=O)NC)cn4)CC3)ccc2c1=O [Example 28, 6-(4-((3-ethyl-2,4-dioxo-1,2,3,4-tetrahydroquinazolin-7-yl)methyl)piperazin-1-yl)-N-methylnicotinamide] | 1 to 10 | 100 to 1000 | > 1000
CNC(=O)c1ccc(NC(=O)c2cccc(-c3ccc4c(=O)n(C)c(=O)[nH]c4c3)c2)cn1 [Example 40, 5-(3-(3-methyl-2,4-dioxo-1,2,3,4-tetrahydroquinazolin-7-yl)benzamido)N-methylpicolinamide] | 1 to 10 | > 1000 | > 1000
CCn1c(=O)[nH]c2cc(CN3CCN(c4ccc(C(=O)NC)nc4)CC3)ccc2c1=O [Example 12, 5-(4-((3-ethyl-2,4-dioxo-1,2,3,4-tetrahydroquinazolin-7-yl)methyl)piperazin-1-yl)-N-methylpicolinamide] | 1 to 10 | 100 to 1000 | 10 to 100
CCn1c(=O)[nH]c2cc(CN3CCN(c4cnc(C(=O)NC)nc4)CC3)ccc2c1=O [Example 27] | 1 to 10 | 100 to 1000 | > 1000
CCn1c(=O)[nH]c2cc(-c3cccc(C(=O)Nc4ccc(C(=O)NC)nc4)c3)ccc2c1=O [Example 41, 5-(3-(3-ethyl-2,4-dioxo-1,2,3,4-tetrahydroquinazolin-7-yl)benzamido)-N-methylpicolinamide] | 1 to 10 | > 1000 | > 1000
CNC(=O)c1ccc(NC(=O)c2cccc(-c3ccc4c(=O)n(C(C)C)c(=O)[nH]c4c3)c2)cn1 [Example 42, 5-(3-(3-isopropyl-2,4 dioxo-1,2,3,4-tetrahydroquinazolin-7-yl)benzamido)-N-methylpicolinamide] | 1 to 10 | > 1000 | > 1000
CCNC(=O)c1ccc(N2CCN(Cc3ccc4c(=O)n(CC)c(=O)[nH]c4c3)CC2)c(F)n1 [Example 33, 5-(4-((3-ethyl-2,4-dioxo-1,2,3,4-tetrahydroquinazolin-7-yl)methyl)piperazin-1-yl)-6-fluoro-N-ethylpicolinamide] | 1 to 10 | 100 to 1000 | 1 to 10
CCn1c(=O)[nH]c2cc(CN3CCN(c4ccc(C(=O)NC)nc4)CC3)ncc2c1=O [Example 5, 5-(4-((3-ethyl-2,4-dioxo-1,2,3,4-tetrahydropyrido[4,3-d]pyrimidin-7-yl)methyl)piperazin-1-yl)-N-methylpicolinamide] | – | – | > 1000
CCn1c(=O)[nH]c2cc(-c3cccc(C(=O)Nc4ccc(C(=O)NC)nc4)n3)ccc2c1=O [Example 46, 6-(3-ethyl-2,4-dioxo-1,2,3,4-tetrahydroquinazolin-7-yl) -N-(6-(methylcarbamoyl)pyridin-3-yl)picolinamide] | – | – | 100 to 1000
